The values that follow are results of earlier work, collected in patent US20130137635A1, “TRYPTOPHAN HYDROXYLASE INHIBITORS FOR THE TREATMENT OF METASTATIC BONE DISEASE” (LEXICON PHARMACEUTICALS, INC., priority 2010, published 2013).

Data set [1] deals with carcinoid syndrome. To be noted: patients; reported in the 1960's.
In data set [2] the test system is cholangiocarcinoma tumors. To be noted: in vivo xenograft model of cholangiocarcinoma tumors; pCPA treatment.

Take `N[C@@H](Cc1ccc(Cl)cc1)C(=O)O` (racemic) [pCPA, para-chlorophenylalanine]: in data set [1], the “effect on symptoms of carcinoid syndrome” value is reported as “alleviated some of the symptoms of carcinoid syndrome” and the “side effects on administration” value was “unacceptable side effects”. The tumor growth result in data set [2] is “suppressed tumor growth”.
